According to patent US6034134A, “1-Amino-alkylcyclohexane NMDA receptor antagonists” (Merz + Co. GmbH & Co., priority 1998, dated 2000):
Counter-ions that a name gives are not always drawn. Like-named read-outs stand apart in the source and are kept apart here.

Tests used:
NMDA receptor = assay: Patch clamp: NMDA-induced inward currents in cultured hippocampal neurones; type: cell-based, rat
Experimental: Hippocampi were obtained from rat embryos (E20 to E21) and were then transferred to calcium and magnesium free Hank's buffered salt solution (Gibco) on ice. Cells were mechanically dissociated in 0.05% DNAase/0.3% ovomucoid (Sigma) following an 8 minute pre-incubation with 0.66% trypsin/0.1% DNAase (Sigma). The dissociated cells were then centrifuged at 18 ×g for 10 minutes, re-suspended in minimum essential medium (Gibco) and plated at a density of 150,000 cells cm^-2 onto poly-L-lysine (Sigma)-precoated plastic petri dishes (Falcon). The cells were nourished with NaHCO3 /HEPES-buffered minimum essential medium supplemented with 5% fetal calf serum and 5% horse serum (Gibco) and incubated at 37° C. with 5% CO2 at 95% humidity. […] Thereafter the medium was exchanged partially twice weekly.
Patch clamp recordings were made from these neurones with polished glass electrodes (4-6 m.OMEGA.) in the whole cell mode at room temperature (20-22° C.) with the aid of an EPC-7 amplifier (List). Test substances were applied by switching channels of a custom-made fast superfusion system with a common outflow (10-20 ms exchange times). The contents of the intracellular solution were as follows (mM): CsCl (120), TEACl (20), EGTA (10), MgCl2 (1), CaCl2 -(0.2), glucose (10), ATP(2), cAMP (0.25); pH was adjusted to 7.3 with CsOH or HC1. The extracellular solutions had the following basic composition (mM): NaCl (140), KCl (3), CaCl2 (0.2), glucose (10), HEPES (10), sucrose (4.5), tetrodotoxin (TTX 3*10^-4). Glycine (1 μM) was present in all solutions: a concentration sufficient to cause around 80-85% activation of glycineB receptors. Only results from stable cells were accepted for inclusion in the final analysis, i.e., following recovery of responses to NMDA by at least 75% of their depression by the antagonists tested.
(§1) IC50 s in patch clamp, excitotoxicity, and binding studies were calculated according to the four parameter logistic equation using the Grafit computer program (Erithacus Software, England). Ki value for binding studies were then determined according to Cheng and Prusoff. Binding values presented are means±SEM of 3-5 determinations (each performed in duplicate). […] Pearson product moment correlation analysis (Sigma Stat, Jandel Scientific) was used to compare in vitro potencies and in vivo anticonvulsant activity.

[1] = Experimental: All animals were kept with water and food ad libitum under a 12 hour light-dark cycle (light on at 6 a.m.) and at a controlled temperature (20±0.5° C.). All e experiments were performed between 10 a.m. and 5 p.m. Tested agents were injected 30 min. i.p. before the induction of convulsions if not stated otherwise (see below). All compounds were dissolved in 0.9% saline.
[2] = Rotarod test (motor coordination, ataxia) in mice, therapeutic index versus MES; type: in vivo; conditions: ED50 for rotarod failure divided by ED50 for MES; for selectivity ratio at 0.5 h: mouse, in vivo, ip, read-out: TI Rot.; for TI Rot.: 30 min
Experimental: All compounds were dissolved in 0.9% saline.
The MES test was performed together with tests for myorelaxant action (traction reflex) and motor coordination (rotarod). For the traction reflex test mice were placed with their forepaws on a horizontal rod and were required to place all 4 paws on the wire within 10 seconds. To test ataxia (motor coordination) mice were placed on rotarod (5 rpm) and were required to remain on the rod for 1 minute. […] These tests were followed by MES (100 Hz, 0.5 second shock duration, 50 mA shock intensity, 0.9 ms impulse duration, Ugo Basile) applied through corneal electrodes. The presence of tonic convulsions was scored (tonic extension of hind paws with minimum angle to the body of 90°). The aim was to obtain ED50 s for all parameters scored (anticonvulsive activity and motor side effects) with use of the Litchfield Wilcoxon test for quantal dose responses. Division of the ED50 for side effects (ataxia or myorelaxation) by the ED50 for antagonism of electroshock convulsions was used as a therapeutic index (TI).
as §1, with “Prusoff.” for “Prusoff. Binding values presented are means±SEM of 3-5 determinations (each performed in duplicate).”

[3] = Solubility (analytical certificates); type: physicochemical
[4] = Table 7; NMDA 200 μM with glycine 1 μM at -70 mV; read-out: Patch Clamp IC50
[5] = Table 9; NMDA-induced currents; read-out: Patch Clamp IC50
[6] = read-out: Patch Clamp IC50; Table 7; NMDA 200 μM with glycine 1 μM at -70 mV
[7] = read-out: Patch Clamp IC50; Table 9; NMDA-induced currents

| Compound | IC50 (NMDA receptor; [4]) | IC50 (NMDA receptor; [5]) | Min Lethality ([1]; mouse, in vivo, ip) | selectivity ratio at 0.5 h [2] | Min Lethality ([1]; i.p., minimal lethal dose) | IC50 (NMDA receptor; [6]) | IC50 (NMDA receptor; [7]) | TI Rot. [2] | Solubility [3] |
| --- | --- | --- | --- | --- | --- | --- | --- | --- | --- |
| CC[C@@]1(C)C[C@H](C)C[C@@](C)(N)C1 (relative stereo) [Mrz 2/622] | 64.8 µM | 58.2 µM | 50 mg/kg |  |  |  |  |  |  |
| CCCC1(C)CCCC(C)(N)C1 (centres unmarked) [Mrz 2/617] | 57.4 µM | 63.9 µM | > 50 mg/kg | 1.1 |  |  |  |  |  |
| CCC[C@]1(C)C[C@@H](C)C[C@@](C)(N)C1 (relative stereo) [Mrz 2/619] | 60.8 µM | 60.9 µM | > 50 mg/kg |  |  |  |  |  |  |
| CCC[C@@]1(C)C[C@H](C)C[C@@](C)(N)C1 (relative stereo) [Mrz 2/618] | 43.7 µM | 57.5 µM | > 50 mg/kg |  |  |  |  |  |  |
| CCC[C@@H]1CCC[C@@](C)(N)C1 (relative stereo) [Mrz 2/627] | 210 µM | 150 µM | 60 mg/kg |  |  |  |  |  |  |
| CCC1(CC)CC(C)(C)CC(C)(N)C1 (centres unmarked) [Mrz 2/623, 1-amino-1,5,5-trimethyl-3,3-diethylcyclohexane] | 3.7 µM | 3.7 µM |  |  | > 30 mg/kg |  |  |  |  |
| CN(C)C1(C)CC(C)(C)CC(C)(C)C1 [Mrz 2/642] |  |  |  |  |  | 42.5 µM | 42.5 µM | 5.3 |  |
| CC[C@@H]1CCC[C@@](C)(N)C1 (relative stereo) [Mrz 2/629] | 219 µM | 219 µM | 100 mg/kg |  |  |  |  |  |  |
| CCC[C@H]1CCC[C@@](C)(N)C1 (relative stereo) [Mrz 2/628] | 126 µM | 126 µM | > 60 mg/kg |  |  |  |  |  |  |
| CC1(C)CC(CCN)CC(C)(C)C1 [Mrz 2/644] | 4.1 µM | 4.1 µM | > 35 mg/kg |  |  |  |  |  |  |
| CCC1(C)CC(C)(C)CC(C)(N)C1 (centres unmarked) [Mrz 2/615, 1-amino-1,3,5,5-tetramethyl-3-ethylcyclohexane] | 2.9 µM | 2.9 µM |  |  | > 50 mg/kg |  |  |  |  |
| C[C@H]1CCC[C@@](C)(N)C1 (relative stereo) [Mrz 2/631] | > 100 µM | > 100 µM |  |  | > 30 mg/kg |  |  |  |  |
| CCCC1(N)CC(C)(C)CC(C)(C)C1 [Mrz 2/601, 1-amino-1-propyl-3,3,5,5-tetramethylcyclohexane] |  |  |  |  | 50 mg/kg | 10.5 µM | 10 µM | 1.5 |  |
| CC1(C)CC(CN)CC(C)(C)C1.Cl [Mrz 2/580, 3,3,5,5-tetramethylcyclohexylmethylamine hydrochloride] | 12.9 µM | 12.9 µM |  |  | 50 mg/kg |  |  |  |  |
| CC[C@]1(C)C[C@@H](C)C[C@@](C)(N)C1 (relative stereo) [Mrz 2/624] | 31 µM | 31 µM | 100 mg/kg |  |  |  |  |  |  |
| CC[C@@H]1CC(C)(C)C[C@@](C)(N)C1 (relative stereo) [Mrz 2/633] | 13.9 µM | 13.9 µM | 108 mg/kg |  |  |  |  |  |  |
| CC[C@H]1CC(C)(C)C[C@@](C)(N)C1 [MRZ 2/683, (1S, 5S) cis-3-Ethyl-1,5,5-trimethylcyclohexylamine hydrochloride hydrate] |  | 4.3 µM | > 50 mg/kg | 3.5 |  |  |  |  | soluble in chloroform, poor soluble in water |
| CCNC1(C)CC(C)(C)CC(C)(C)C1 [Mrz 2/639, N-ethyl-1-amino-1,3,3,5,5-pentamethylcyclohexane] | 7.4 µM | 7.4 µM |  |  | 30 mg/kg |  |  |  |  |
| CNC1(C)CC(C)(C)CC(C)(C)C1.Cl [Mrz 2/640, N,1,3,3,5,5-hexamethylcyclohexanamine hydrochloride] | 14.6 µM | 14.6 µM |  |  | 108 mg/kg |  |  |  |  |

| Compound | IC50 (NMDA receptor; [4]) | IC50 (NMDA receptor; [5]) | Min Lethality ([1]; mouse, in vivo, ip) | selectivity ratio at 0.5 h [2] | Min Lethality ([1]; i.p., minimal lethal dose) | IC50 (NMDA receptor; [6]) | IC50 (NMDA receptor; [7]) | TI Rot. [2] | Solubility [3] |
| --- | --- | --- | --- | --- | --- | --- | --- | --- | --- |
| CC(C)(N)CC1CC(C)(C)CC(C)(C)C1 [Mrz 2/645] | 20.4 µM | 20.4 µM |  | 0.6 |  |  |  |  |  |
| C[C@@H]1CCC[C@@](C)(N)C1 (relative stereo) [Mrz 2/625] | 245 µM | 245 µM | > 70 mg/kg |  |  |  |  |  |  |
| CC1CC(C)CC(C)(N)C1 (centres unmarked) [Mrz 2/616, 1-amino-1,3,5-trimethylcyclohexane] | 34.2 µM | 33.2 µM |  |  | > 50 mg/kg |  |  |  | soluble in svater, chloroform |
| C[C@@H]1CC(C)(C)C[C@@](C)(N)C1 (relative stereo) [Mrz 2/607] | 13.8 µM | 13.8 µM | 50 mg/kg |  |  |  |  |  |  |
| CCCC1(C)CC(C)(C)CC(C)(N)C1 (centres unmarked) [Mrz 2/614] | 13.9 µM | 13.9 µM | > 50 mg/kg | 1.6 |  |  |  |  |  |
| CCC[C@@H]1CC(C)(C)C[C@@](C)(N)C1 (relative stereo) [Mrz 2/635] | 21 µM | 21 µM | > 50 mg/kg |  |  |  |  |  |  |
| CC1(C)CCCC(C)(N)C1 (centres unmarked) [Mrz 2/621] |  |  |  | 1.5 | > 60 mg/kg | 92.4 µM | 92.4 µM |  |  |
| C[C@@H]1C[C@H](C)C[C@@](C)(N)C1 [MRZ 2/680, 1,trans-3,trans-5-Trimethylcyclohexylamine hydrochloride] |  | 43 µM | > 50 mg/kg | 1.1 |  |  |  |  | soluble in water, chloroform |
| C[C@@H]1C[C@H](C)C[C@](C)(N)C1 [MRZ 2/681, 1,cis-3,cis-5-Trimethylcyclohexylamine hydrochloride hydrate] |  | 30 µM | > 50 mg/kg | 5.8 |  |  |  |  | soluble in water, chloroform |
| CCC[C@@H]1CC(C)(C)C[C@](C)(N)C1 (relative stereo) [Mrz 2/634] | 10.8 µM | 10.8 µM |  |  | > 30 mg/kg |  |  |  |  |
| CCCC1(CCC)CC(C)(C)CC(C)(N)C1 (centres unmarked) [Mrz 2/626] | 9.6 µM | 9.6 µM | > 50 mg/kg | 1 |  |  |  |  |  |
| CC[C@H]1CC(C)(C)C[C@@](C)(N)C1 (relative stereo) [Mrz 2/632] | 6.4 µM | 6.4 µM | > 30 mg/kg |  |  |  |  |  |  |
| CCC1(N)CC(C)(C)CC(C)(C)C1 [Mrz 2/600, 1-amino-1-ethyl-3,3,5,5-tetramethylcyclohexane] | 3.7 µM | 3.49 µM |  |  | 50 mg/kg |  |  |  |  |
| CC[C@H]1CCC[C@@](C)(N)C1 (relative stereo) [Mrz 2/630] | > 100 µM | 100 µM |  |  | > 30 mg/kg |  |  |  |  |
| CC1(C)CC(N)CC(C)(C)C1 [Mrz 2/557] | 18.5 µM | 18.5 µM | > 70 mg/kg |  |  |  |  |  |  |
| CC1(N)CCCCC1 [Mrz 2/641] | > 100 µM | > 100 µM |  |  | > 50 mg/kg |  |  |  |  |
| CCC1(C)CCCC(C)(N)C1 (centres unmarked) [Mrz 2/620] | 99 µM | 99 µM | > 50 mg/kg | 1.5 |  |  |  |  |  |
| C[C@H]1CC(C)(C)C[C@@](C)(N)C1 (relative stereo) [Mrz 2/643] | 13.5 µM | 13.5 µM | > 50 mg/kg | 2.4 |  |  |  |  |  |
